Laboratory results: ChEMBL document CHEMBL3507680, “University of Dundee, Gates Library screen for HepG2 cell viability”

Test: Human HepG2 cell viability assay in 384 well format
Format: toxicity, cell-based
Set-up: dose 125 nL, time 70.5 hour; cytotoxicity at 70.5 h: concentration not given beside the values
Conditions: HepG2 cells, read-out: Inhibition

Row | SMILES | cytotoxicity at 70.5 h [%]
1 | O=c1cc(CN2CCCC2)nc2n1CCCN(S(=O)(=O)C1CC1)C2 | -1.37
2 | CCc1nc(CN(Cc2cccs2)CC2CCCO2)no1 (stereo not drawn) | 1.39
3 | Cc1ccc(S(=O)(=O)NCC2(O)CCOc3ccccc32)s1 (stereo not drawn) | -4.01
4 | Cc1cc(C2CCCN(CCc3ccccn3)C2)n[nH]1 (stereo not drawn) | -17
5 | CC(C)N1CCc2c(C(=O)N3CCOCC3)nn(C)c2C1 | 0.371
6 | CC1(C)COCCN1C(=O)c1ccc(Cn2cncn2)cc1 | -9.35
7 | NS(=O)(=O)CC1CCCN(C(=O)CCCC2CCCC2)C1 (stereo not drawn) | -12.7
8 | CN(C)C(CNS(=O)(=O)c1ccc(F)cc1F)c1cccn1C (stereo not drawn) | -13.1
9 | CN1CCN(Cc2cccnc2)Cc2cccnc21 | -7.13
10 | Cc1ccc(S(=O)(=O)NC(=O)CCC(F)(F)F)cc1N(C)C | -1.96
11 | O=C(C1=CCCC1)N1C[C@@H]2COC[C@]2(COc2cccnc2)C1 | -5.78
12 | Cc1c(Br)cccc1S(=O)(=O)NCc1ccnn1C | -3.27
13 | Cc1nn(C)c2cn(C(C)C(=O)NCc3ccc(F)cc3)nc12 (stereo not drawn) | -3.15
14 | Cc1noc(C)c1-c1nc(C2CCCN(C(=O)CN)C2)ccc1CO (stereo not drawn) | -11.3
15 | CSc1nnc(C2CCN(C(=O)N3CCCC3)CC2)n1C | -9.43
16 | O=C(NCCc1ccccn1)[C@@H]1CC[C@@H]2[C@@H](CCN2Cc2ccoc2)O1 | 0.0992
17 | Cn1ccnc1CCNS(=O)(=O)c1cccnc1 | -4.82
18 | O=c1c2ccccc2nnn1CN(CC1CCOC1)C1CC1 (stereo not drawn) | -2.98
19 | Cc1ccc(CN(CCN(C)C)C(=O)Nc2ccc(C)c(C#N)c2)s1 | 1.83
20 | Cc1cc(C)n(CCC(=O)N2CCCC(c3nc(C(C)C)no3)C2)n1 (stereo not drawn) | -4.86
21 | COC(=O)C1CCCN1C(=O)c1ccc(Cl)cc1F (stereo not drawn) | -2.57
22 | CC(C)[C@H]1CN(CCS(C)(=O)=O)C[C@@H]1NC(=O)c1ccc(=O)[nH]c1 | -3.99
23 | CC(C)(C)C(=O)N[C@H]1CC[C@H](Nc2nccc(-c3ccncc3)n2)C1 | -6.97

Row | SMILES | cytotoxicity at 70.5 h [%]
24 | CCc1cc(NCCc2cnccn2)n2nc(C)c(C)c2n1 | -5.77
25 | Cc1cc2c(cc1Cl)C=CC1(CCN(C(=O)N3CCOCC3)CC1)O2 | 22
26 | O=C(COc1cccc(F)c1)N1C[C@H](CO)C[C@H](CN2CCCC2)C1 | 6.4
27 | OCCOc1ccccc1CN1CCCC(O)(CO)C1 (stereo not drawn) | 9.78
28 | CCc1cccc2cc(CNCCOC)c(=O)[nH]c12 | 21.7
29 | O=S(=O)(NCCNc1ccc(-n2cccc2)nn1)c1ccccc1 | -5.01
30 | COc1nccc(N2CC[C@@H](N3CCC(O)CC3)[C@H](O)C2)c1C#N | 5.37
31 | CCc1nnc2n1CCN(CCC(=O)Nc1cc(C)on1)C2 | -5.92
32 | Cc1occc1C(=O)NCC(O)c1ccc(Cl)s1 (stereo not drawn) | 3.32
33 | CCc1nnc2n1CCN(Cc1nc3c(F)cccc3[nH]1)C2 | 11.8
34 | O=C(N1CCOCC1)[C@@]12CCO[C@@H]1CCN(CCN1CCCCC1)C2 | -20.4
35 | N#Cc1ccc(CN(CCF)Cc2cccc(F)c2)cc1 | 6.81
36 | Cc1ccc(NC2CCCN(CCCc3ccccc3)C2)nn1 (stereo not drawn) | 30.2
37 | CC(Cn1cccn1)NS(=O)(=O)Cc1ccccc1 (stereo not drawn) | 24.2
38 | CCNc1ncc2c(n1)CN(c1ccc(Cl)cc1)C2=O | -14.1
39 | Cc1cc(C)n(C2CN(c3ncnc4[nH]ccc34)C2)n1 | -3.24
40 | CCCn1c(SCC(N)=O)nnc1-c1csc2c1CCCC2 | -9.81
41 | Cc1ccc(C)c(S(=O)(=O)NCCC(=O)NCc2ccoc2)c1 | -11.7
42 | O=C(Nc1ccc(-n2cccn2)c(F)c1)C1CCN(C(=O)C2CC2)CC1 | -0.357
43 | O=C(NC1CCN(c2ccccc2Br)C1)c1c[nH]nn1 (stereo not drawn) | -6.49
44 | c1ccc(CN2CCc3nnc(COc4ccccn4)n3CC2)nc1 | 13.9
45 | Cc1cccc2nc(CNCc3cccc4c3OCCCO4)cn12 | -0.513
46 | COCCN(C)C[C@@H]1CN(C(=O)c2c(C)cccc2OC)C[C@@H]1CO | -4.17

Row | SMILES | cytotoxicity at 70.5 h [%]
47 | O=C(Nc1cc(CSCCO)ccn1)c1ccc(Cl)o1 | -10.5
48 | Cc1nc(CC(=O)N2CCc3nc(-c4cnccn4)nc(O)c3C2)cs1 | 12.3
49 | COc1ccc([C@@H]2CN(Cc3ccncc3)C[C@H]2c2cc[nH]n2)cc1 | -7.91
50 | COC(=O)c1cc2n(n1)CCCN(C(=O)Cc1c[nH]c3ccccc13)C2 | -13.9
51 | CCn1cc(CN2CCCN(C(=O)c3ccoc3C)CC2)cn1 | -7.59
52 | OCCCN1CCCC1c1ccc(Br)cc1 (stereo not drawn) | -9.27
53 | CNc1cc2c(nn1)CCN(C(=O)c1cc(C)n(C3CC3)c1C)C2 | 15.8
54 | CN1CCN(C(=O)c2ncn3c2CNS(=O)(=O)c2ccccc2-3)CC1 | 1.85
55 | CCc1nc(CN2CCCN(C(=O)C3CCOCC3)CC2)cs1 | 18.1
56 | CCC[C@@H]1CN(S(=O)(=O)c2ccc(C)c(F)c2)C[C@H]1N(C)C | 0.773
57 | CN[C@@H]1CCC[C@@H](Oc2ccccc2Oc2ccc(C)cc2)[C@@H]1O | 22.2
58 | O=C(c1c[nH]c(=O)[nH]1)N1CCc2ccccc21 | -4.03
59 | CC(C)NC(=O)CCC(=O)N1CCC(c2noc3cc(F)ccc23)CC1 | -17.2
60 | Cn1cc(C(=O)N2C[C@@H]3CN(S(C)(=O)=O)CCO[C@@H]3C2)cn1 | -0.664
61 | CC(C)CC(=O)N1CC(=O)N(CCc2ccccc2)CC(O)C1 (stereo not drawn) | 24
62 | COc1c(C(N)=O)cn(C)c1-c1nc2cc(NC(C)=O)ccc2n1C | -14.7
63 | Cc1nc(C)n(C2CCCN(C(=O)Cc3cccnc3)C2)n1 (stereo not drawn) | 3.66
64 | Fc1cccc(Cl)c1Cn1ncnc1CSCCN1CCCC1 | -6.36
65 | CCN(C(=O)Cc1ccc(NCc2nccn2C)cc1)c1ccccc1 | -6.33
66 | CC(C)c1nnc2sc(CC3CN(Cc4ccccc4)CCO3)nn12 (stereo not drawn) | 6.69
67 | Cc1cn(-c2ccccc2)nc1NS(=O)(=O)c1cc(C(=O)O)cs1 | 14.9
68 | COc1ccc(CCC(=O)NCCC2CCCO2)cc1Br (stereo not drawn) | -7.13
69 | COc1ccc(OC)c(C(C)Nc2ncnc3c2NC(=O)CN3)c1 (stereo not drawn) | -18.2

Row | SMILES | cytotoxicity at 70.5 h [%]
70 | O=C(CCc1ccccc1)N1C[C@H]2CCN[C@H]2C1 | -7.82
71 | CCC1=N[C@@]2(CC[C@@H]3CN(CC(=O)N(C)C)C[C@@H]32)C(=O)N1CC1CC1 | -13.2
72 | COc1ccc2c(c1)NC(C1CCNCC1)NS2(=O)=O (stereo not drawn) | -4.76
73 | CSc1ncccc1C(=O)N1CCCC1c1ccc(C(=O)N(C)C)s1 (stereo not drawn) | -15.4
74 | O=C(NCCc1ccccn1)Nc1cc(C(F)(F)F)c[nH]c1=O | -2.62
75 | COCC1CN(Cc2ccoc2)Cc2nn(C)cc21 (stereo not drawn) | -2.22
76 | CN(C)CCOCc1nnc2n1CCN(Cc1cccs1)CC2 | 1.78
77 | Cc1ccc(CNC(c2ccccc2)c2nccn2C)cc1C (stereo not drawn) | -7.63
78 | Cc1noc(C2CCN(C(=O)c3cccs3)CC2)n1 | -9.06
79 | COc1ccc(C(=O)Cn2cnnc2[S+](C)[O-])cc1Cl (stereo not drawn) | -3.44
80 | Cc1nc(-n2nc(C3CC3)cc2NC(=O)C(C)C)[nH]c(=O)c1C | 40.2
81 | COc1cccc(CSCC(=O)NCc2cccnc2)c1 | -3.51
82 | CN(C)CCNC(=O)[C@H]1C[C@@H]2CN(C(=O)NC3CCCC3)C[C@H]1O2 | 5.4
83 | CC(NC(=O)N1CCCN(CC(F)F)CC1)c1ccco1 (stereo not drawn) | -8.42
84 | Cc1cc(N2CCC(NS(C)(=O)=O)CC2)nc(C(C)C)n1 | -4.49
85 | Cc1noc([C@@H]2C[C@H]3OCC[C@H]3N(S(=O)(=O)c3cccnc3)C2)n1 | -8.05
86 | CC1(COc2ccccc2)NCCc2[nH]cnc21 (stereo not drawn) | -2.27
87 | O=C(NCc1cncc2c1CCN(CC1CCOC1)C2)c1ccco1 (stereo not drawn) | 19.6
88 | O=C1CC(c2cccnc2)c2c(sc3c2CCCC3)N1 (stereo not drawn) | -3.62
89 | O=C1COc2ccc(Cl)cc2CN1CC1CC1 | -12
90 | Cc1ccccc1C1(CNC(=O)NCCc2nnc3n2CCC3)CC1 | -17.5
91 | Cn1cccc1C(=O)N1CCC(O)(CN2CCc3ccccc3C2)C1 (stereo not drawn) | -4.98
92 | CCSc1nsc(NC(=O)COc2ccc3c(c2)OCO3)n1 | -8.05

Row | SMILES | cytotoxicity at 70.5 h [%]
93 | CS(=O)(=O)NC[C@H]1Cn2c(-c3ccc4c(c3)OCCO4)cnc2CO1 | -13.2
94 | Cc1cnn(CC2CCCCN2CC(=O)Nc2nc(C)cs2)c1 (stereo not drawn) | -2.94
95 | CC(C)c1ncc2c(n1)CN(Cc1cccc(C#N)c1)CC2 | 4.14
96 | CC(=O)NC1CCCc2c1[nH]c1ccc(F)cc21 (stereo not drawn) | 29.6
97 | Cc1noc(C)c1-c1ccc(C2CCCN2C(=O)Cn2ccnc2)nc1 (stereo not drawn) | 15.1
98 | CN(Cc1ccc(F)cc1C#N)CC(F)(F)F | 17.4
99 | Cc1nc(N2CCCC2)ccc1NCc1ccccn1 | -96.9
100 | O=C1[C@H]2CN(C3CCOC3)C[C@H]2CN1c1ccccc1 (stereo partly drawn) | -1.16
101 | CN1CCC(N2CCC(CN(Cc3ccncc3)C3CCC3)CC2)CC1 | -4.29
102 | O=C(NC[C@H]1OC[C@@H]2CN(Cc3ccco3)CC[C@@H]21)c1cscn1 | 0.732
103 | Cc1nn(C)c(C)c1C(=O)NCc1cc(N(C)C)nc2ccccc12 | 27.3
104 | O=C(CCCN1CCCCC1)N1CCC(c2nnc[nH]2)CC1 | -4.84
105 | Cc1ccc2c(c1)OCCCC2NCc1nccn1Cc1ccccc1 (stereo not drawn) | -6.01
106 | Cc1[nH]ncc1CCCNC(=O)Nc1ccc2c(c1)OC1(CCCC1)O2 | -2.92
107 | O=c1cc(-c2ccncc2)nc(-c2ccc(CN3CC[C@@H](O)C3)cc2)[nH]1 | -11.3
108 | Cc1cccn2c(CC(=O)N3CCC(Oc4ncccn4)CC3)cnc12 | 25.3
109 | COCC(=O)N1CCC(c2nc3ccc(N4CCCC4)cn3n2)CC1 | -5.18
110 | Cc1ccc(NC2CCN(C(=O)COc3ccccc3)CC2)nn1 | -15.7
111 | CCC(C)Oc1ccc(CNCCNC(C)=O)cc1Cl (stereo not drawn) | -3.38
112 | COCCn1ccnc1C1CCN(C(=O)c2cccc(COC)n2)CC1 | -4.2
113 | Cc1occc1C(=O)N1CCO[C@H]2[C@H](OCc3cccnc3)CC[C@@H]21 | -8.78
